Source: paper PMC5896746 (ACS chemical biology, 2017)
Numbering of substitutions follows the chain as printed.

Key:
PKG II = settings: read-out: Activation constant (previous activation data); cited from earlier work
hPKG Iβ 5–676 = target: T1, hPKG Iβ 5–676 (Homo sapiens, UniProt Q13976); experiment: Microfluidic mobility-shift kinase activation assay, PKG Iβ; settings: for Activation constant Ka ± SEM: full-length PKG Iβ, microfluidic mobility shift assay
T1 sequence (Q13976 5-686 isoform Q13976-2): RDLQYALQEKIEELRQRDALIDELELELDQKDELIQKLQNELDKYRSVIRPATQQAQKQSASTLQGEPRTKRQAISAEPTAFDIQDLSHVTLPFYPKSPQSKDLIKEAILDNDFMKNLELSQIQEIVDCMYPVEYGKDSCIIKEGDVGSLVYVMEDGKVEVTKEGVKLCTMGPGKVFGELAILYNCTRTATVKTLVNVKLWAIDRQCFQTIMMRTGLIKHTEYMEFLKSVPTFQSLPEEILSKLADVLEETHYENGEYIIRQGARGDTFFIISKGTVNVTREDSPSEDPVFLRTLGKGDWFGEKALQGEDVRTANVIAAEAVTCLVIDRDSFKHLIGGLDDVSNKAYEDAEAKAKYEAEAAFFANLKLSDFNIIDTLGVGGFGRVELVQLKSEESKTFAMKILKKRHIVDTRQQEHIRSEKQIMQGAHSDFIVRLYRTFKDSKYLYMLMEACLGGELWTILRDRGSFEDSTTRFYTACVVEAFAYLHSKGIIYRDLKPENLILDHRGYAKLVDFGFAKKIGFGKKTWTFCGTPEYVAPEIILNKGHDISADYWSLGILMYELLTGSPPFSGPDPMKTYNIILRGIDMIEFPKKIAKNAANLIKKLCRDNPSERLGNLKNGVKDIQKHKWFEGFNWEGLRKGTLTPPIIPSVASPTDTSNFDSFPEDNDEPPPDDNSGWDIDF

hPKG II 41–418 wt = target: T2, hPKG II 41–418 wt (Homo sapiens, UniProt Q13237); experiment: Competitive SPR; assay type: binding; settings: for Isotype selectivity in binding, PKG II: selective in binding PKG II
T2 sequence (Q13237 41-418): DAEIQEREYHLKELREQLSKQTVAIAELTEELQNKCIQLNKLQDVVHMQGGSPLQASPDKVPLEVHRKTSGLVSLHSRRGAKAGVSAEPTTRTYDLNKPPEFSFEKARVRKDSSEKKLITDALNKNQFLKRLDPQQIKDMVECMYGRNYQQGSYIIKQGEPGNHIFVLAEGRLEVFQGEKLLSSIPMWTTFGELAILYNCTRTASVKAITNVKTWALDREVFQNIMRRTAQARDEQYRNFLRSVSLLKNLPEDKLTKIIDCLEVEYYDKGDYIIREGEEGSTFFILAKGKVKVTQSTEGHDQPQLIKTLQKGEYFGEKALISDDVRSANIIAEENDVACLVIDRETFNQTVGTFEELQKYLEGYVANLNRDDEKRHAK

hPKG Iβ 1–351 G306E = target: T3, hPKG Iβ 1–351 G306E (Homo sapiens, UniProt Q13976, G291E); experiment: Competitive SPR, PKG Iβ R domain with site B disabled; assay type: binding; settings: own affinity data
T3 sequence (Q13976 1-351 isoform Q13976-2 G306E): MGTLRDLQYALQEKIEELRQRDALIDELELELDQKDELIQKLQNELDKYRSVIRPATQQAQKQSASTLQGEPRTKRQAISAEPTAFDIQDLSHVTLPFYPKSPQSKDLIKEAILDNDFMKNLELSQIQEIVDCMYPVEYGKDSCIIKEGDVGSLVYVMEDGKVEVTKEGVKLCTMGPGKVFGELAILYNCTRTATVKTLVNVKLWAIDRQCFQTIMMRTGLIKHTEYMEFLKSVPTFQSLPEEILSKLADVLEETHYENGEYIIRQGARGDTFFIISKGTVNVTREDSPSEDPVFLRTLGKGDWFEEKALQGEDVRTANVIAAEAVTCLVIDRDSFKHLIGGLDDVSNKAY

hPKG II 1–762 = target: T4, hPKG II 1–762 (Homo sapiens, UniProt Q13237); experiment: Microfluidic mobility-shift kinase activation assay, PKG II; settings: for Isotype selectivity in activating, PKG II: selective in activating PKG II; for Activation constant Ka ± SEM: full-length PKG II, microfluidic mobility shift assay
T4 sequence (Q13237 1-762): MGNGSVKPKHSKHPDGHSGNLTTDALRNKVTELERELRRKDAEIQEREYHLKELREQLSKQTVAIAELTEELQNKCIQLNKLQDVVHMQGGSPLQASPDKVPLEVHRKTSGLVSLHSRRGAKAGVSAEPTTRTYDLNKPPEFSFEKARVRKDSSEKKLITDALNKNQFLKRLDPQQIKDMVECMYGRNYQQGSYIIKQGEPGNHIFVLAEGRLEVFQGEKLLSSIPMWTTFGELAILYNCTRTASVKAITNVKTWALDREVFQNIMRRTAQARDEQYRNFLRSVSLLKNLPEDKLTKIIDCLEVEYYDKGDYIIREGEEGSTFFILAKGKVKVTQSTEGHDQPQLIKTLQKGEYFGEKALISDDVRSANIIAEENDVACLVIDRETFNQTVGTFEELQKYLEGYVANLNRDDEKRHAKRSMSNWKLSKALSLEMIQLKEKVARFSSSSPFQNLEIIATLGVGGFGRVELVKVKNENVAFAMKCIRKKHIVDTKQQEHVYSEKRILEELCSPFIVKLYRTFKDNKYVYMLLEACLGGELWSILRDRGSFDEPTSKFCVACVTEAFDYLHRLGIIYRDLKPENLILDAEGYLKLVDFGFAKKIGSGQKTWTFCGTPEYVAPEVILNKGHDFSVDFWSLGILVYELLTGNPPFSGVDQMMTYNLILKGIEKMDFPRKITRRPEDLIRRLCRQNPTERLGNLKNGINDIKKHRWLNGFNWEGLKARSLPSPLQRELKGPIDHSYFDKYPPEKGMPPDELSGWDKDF

PKG I = PKG I preincubated with [3H]cGMP, cited from earlier work
hPKG II 41–418 G356E = target: T5, hPKG II 41–418 G356E (Homo sapiens, UniProt Q13237, G356E); experiment: Competitive SPR, PKG II R domain with site B disabled; assay type: binding
T5 sequence (Q13237 41-418 G356E): T2 sequence (Q13237 41-418) with G316E

PKG Iβ = settings: read-out: Activation constant (previous activation data); cited from earlier work
hPKG Iβ 1–351 wt = target: T6, hPKG Iβ 1–351 wt (Homo sapiens, UniProt Q13976); experiment: Competitive SPR
T6 sequence (Q13976 1-351 isoform Q13976-2): T3 sequence (Q13976 1-351 isoform Q13976-2 G306E) with E306G

hPKG Iβ 1–351 G182E = target: T7, hPKG Iβ 1–351 G182E (Homo sapiens, UniProt Q13976, G167E); experiment: Competitive SPR, PKG Iβ R domain with site A disabled; assay type: binding; settings: own affinity data
T7 sequence (Q13976 1-351 isoform Q13976-2 G182E): T3 sequence (Q13976 1-351 isoform Q13976-2 G306E) with G182E, E306G

SMILES: Nc1nc2c(nc(Br)n2[C@@H]2O[C@@H]3COP(=O)(O)O[C@H]3[C@H]2O)c(=O)[nH]1 [8-Br-cGMP, 8-bromoguanosine 3′,5′-cyclic monophosphate]
- EC50 (PKG II): 25 nM
- Activation constant Ka ± SEM (hPKG Iβ 5–676): 206 ± 13 nM (3)
- Isotype selectivity in binding, PKG II (hPKG II 41–418 wt): ~ 10 fold
- Binding to A site, fold stronger than cGMP (hPKG Iβ 1–351 G306E): over 2 fold
- Isotype selectivity in activating, PKG II (hPKG II 1–762): ~ 4 fold
- Binding to slowly exchanging site (A site), fold stronger than cGMP (PKG I): 3.4 fold

SMILES: Nc1nc2c(nc(Sc3ccc(Cl)cc3)n2[C@@H]2O[C@@H]3COP(=O)(O)O[C@H]3[C@H]2O)c(=O)[nH]1 [8-pCPT-cGMP, 8-(4-chlorophenylthio)guanosine-3′-5′-cyclic monophosphate]
- Reduction of EC50 at A site of PKG II compared to cGMP (hPKG II 41–418 G356E): > 50 fold
- Activation constant Ka ± SEM (hPKG Iβ 5–676): 249 ± 17 nM (3)
- Isotype selectivity in binding, PKG II (hPKG II 41–418 wt): 40–50 fold
- Selectivity for PKG II (EC50 compared to cGMP) (hPKG II 41–418 wt; wild type R domain, SPR): ~ 19 fold
- EC50 (PKG Iβ): 440 nM
- Activation constant Ka ± SEM (hPKG II 1–762): 22 ± 3 nM (4)
- Isotype selectivity in activating, PKG II (hPKG II 1–762): ~ 10 fold

SMILES: O=c1c2ncn([C@@H]3O[C@@H]4COP(=O)(O)O[C@H]4[C@H]3O)c2nc2[nH]c(-c3ccccc3)cn12 [PET-cGMP, β-phenyl-1,N2-ethenoguanosine 3′,5′-monophosphate]
- Activation constant Ka ± SEM (hPKG Iβ 5–676): 18 ± 2 nM (3)
- Isotype selectivity in activating, PKG Iβ (hPKG Iβ 5–676; selective in activating PKG Iβ): ~ 10 fold
- Isotype selectivity in binding, PKG Iβ (hPKG Iβ 1–351 wt; selective in binding PKG Iβ): 40–50 fold
- Selectivity for PKG Iβ (EC50 compared to cGMP) (hPKG Iβ 1–351 wt; wild type R domain, SPR): ~ 40 fold
- Binding to B site, fold stronger than cGMP (hPKG Iβ 1–351 G182E): over 50 fold
- EC50 (PKG Iβ): 20 nM
- Activation constant Ka ± SEM (hPKG II 1–762): 225 ± 13 nM (3)
- Binding to B site, fold stronger than cGMP (PKG I; rapidly exchanging site): 10 fold

SMILES: Nc1nc2c(ncn2[C@@H]2O[C@@H]3COP(=O)(O)O[C@H]3[C@H]2O)c(=O)[nH]1 [cGMP, Cyclic GMP]
- EC50 (PKG II): 40 to 360 nM
- EC50 (PKG Iβ): 250 nM
